This is an account of results in publication PMC11061835, “Elucidating the Mechanism of Metabolism of Cannabichromene by Human Cytochrome P450s” (Journal of Natural Products, 2024).

Where “and” joins values, the source holds several entries; their conditions need not be identical. Identical values can stand only once.

For one series, the target named is T1, CYP2C8 (Homo sapiens, UniProt P10632).
T1 construct: His-tag; made in house; host or cells: E. coli DH-5α with pTGro7 plasmid
T1 sequence (P10632 1-490): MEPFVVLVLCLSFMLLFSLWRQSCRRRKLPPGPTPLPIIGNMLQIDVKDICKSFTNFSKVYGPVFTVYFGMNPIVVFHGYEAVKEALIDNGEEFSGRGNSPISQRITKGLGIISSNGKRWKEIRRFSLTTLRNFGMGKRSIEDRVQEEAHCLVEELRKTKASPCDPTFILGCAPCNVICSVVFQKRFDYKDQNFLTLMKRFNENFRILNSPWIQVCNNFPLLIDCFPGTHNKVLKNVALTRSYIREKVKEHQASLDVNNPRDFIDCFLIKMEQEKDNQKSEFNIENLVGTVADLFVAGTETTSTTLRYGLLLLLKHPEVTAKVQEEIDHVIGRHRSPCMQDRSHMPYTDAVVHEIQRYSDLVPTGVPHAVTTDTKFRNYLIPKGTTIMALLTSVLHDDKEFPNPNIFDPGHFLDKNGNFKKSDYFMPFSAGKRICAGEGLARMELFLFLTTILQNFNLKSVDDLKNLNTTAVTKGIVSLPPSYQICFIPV
The experiment in a line: CBC metabolism by CYP2C8. The class given is in vitro ADME. The settings on record: CYP2C8, from Vmax. Here is the method:
(§1) To study the kinetics of CBC metabolism, concentration dependent metabolism of CBC was carried out in the presence of various CYPs using the following procedure. CYP2J2, CYP2C8, CYP2D6, CYP2C9, and CYP3A4 (final concentration 0.5 μM) were initially dissolved in lipid containing POPC:POPS (8:2 v/v) followed by addition of CPR (final concentration 0.6 μM) in 0.1 M potassium phosphate buffer (pH 7.4). CBC (5–80 μM) was added and incubated at 37 °C for 10 min. The reaction was triggered by NADPH and extracted using the exact sample protocol as mentioned in the HLM section.
(§2) Samples were analyzed with the 5500 QTRAP LC/MS/MS system (Sciex, Framingham, MA) in the Metabolomics Lab of Roy J. Carver Biotechnology Center, University of Illinois at Urbana–Champaign. Software Analyst 1.7.1 was used for data acquisition and analysis. The 1200 series HPLC system (Agilent Technologies, Santa Clara, CA) includes a degasser, an autosampler, and a binary pump. […] Multiple reaction monitoring (MRM) was used for quantitation: CBC m/z 315.1 → m/z 135.0; 1-acetoxy-6′,7′-dihydroxy-CBC (JM-I-73) m/z 349.1→ m/z 193.0; 1″-hydroxy-CBC (JM-I-66) m/z 331.1→ m/z 275.1; 6′,7′-epoxy-CBC (JM-I-27) m/z 331.1→ m/z 193.0; 7′,10′-ene-6′-hydroxy-CBC (JM-I-30) m/z 331.1→ m/z 193.0; 8′-hydroxy-CBC (JM-I-32) […]→ m/z 77.0. Internal standard EET-EA-d11 was monitored at m/z 375.2→ m/z 357.1.

The next series deals with CYP2C9. Nature of the series: CBC metabolism by CYP2C9. The class given is in vitro ADME, human. As for the experimental part: as §1, §2
For the next series, the target named is CYP2D6 (Homo sapiens, UniProt P10635). The experiment in a line: CBC metabolism by CYP2D6. The class given is in vitro ADME. More on the design: His-tag; made in house; host or cells: E. coli DH-5α with pTGro7 plasmid (CYP). As for the experimental part:
as §1, §2

A further series has as its target T2, CYP2J2 (Homo sapiens, UniProt P51589).
T2 construct: His-tag; made in house; host or cells: E. coli DH-5α with pTGro7 plasmid
T2 sequence (P51589 1-502): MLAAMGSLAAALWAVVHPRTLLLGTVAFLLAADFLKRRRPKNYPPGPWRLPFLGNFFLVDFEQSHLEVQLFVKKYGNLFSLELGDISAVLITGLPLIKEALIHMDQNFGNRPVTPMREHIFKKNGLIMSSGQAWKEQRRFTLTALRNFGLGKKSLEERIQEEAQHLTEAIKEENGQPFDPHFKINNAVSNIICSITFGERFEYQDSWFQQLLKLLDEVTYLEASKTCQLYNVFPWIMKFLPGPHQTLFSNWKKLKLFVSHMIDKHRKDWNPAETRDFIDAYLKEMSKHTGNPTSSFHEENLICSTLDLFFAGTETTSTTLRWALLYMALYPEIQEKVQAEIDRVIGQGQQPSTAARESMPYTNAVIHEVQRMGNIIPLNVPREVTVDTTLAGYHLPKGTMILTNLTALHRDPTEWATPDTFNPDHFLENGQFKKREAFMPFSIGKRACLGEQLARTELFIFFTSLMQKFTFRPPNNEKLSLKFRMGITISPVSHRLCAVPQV
The experiment in a line: Spectroscopic titration (Soret shift), CYP2J2. The class given is binding. The note with it: CYP2J2, absence of CPR. Here is the method: CBC binding to various CYPs was determined by analyzing the Soret shift from ∼417 to ∼390 nm. CBC (stock 10 mM) was dissolved in ethanol and titrated with different CYPs at room temperature. Buffer-exchanged CYP2J2, CYP2D6, CYP3A4, and CYP2C8 (concentrations of proteins were kept between 4 and 5 μM) were dissolved in 0.1 M phosphate buffer (pH = 7.4), and initial spectra were recorded from 200 to 800 nm with a prominent peak at 417 nm. The concentration of CBC was varied from 0 to 100 μM keeping the final concentration of substrate in EtOH not more than 1% in cuvette. 0–4 μL of stock CBC was added using a Hamilton syringe in both the sample and blank cuvettes. The mixture was incubated for 5 min at 37 °C, and absorbance spectra were recorded using a Cary Bio 300 UV–vis spectrophotometer (Agilent Technologies, Santa Clara, CA). To eliminate the background absorbance, we derived the final spectra by […].

Sequence of CYP2D6 (P10635 whole entry): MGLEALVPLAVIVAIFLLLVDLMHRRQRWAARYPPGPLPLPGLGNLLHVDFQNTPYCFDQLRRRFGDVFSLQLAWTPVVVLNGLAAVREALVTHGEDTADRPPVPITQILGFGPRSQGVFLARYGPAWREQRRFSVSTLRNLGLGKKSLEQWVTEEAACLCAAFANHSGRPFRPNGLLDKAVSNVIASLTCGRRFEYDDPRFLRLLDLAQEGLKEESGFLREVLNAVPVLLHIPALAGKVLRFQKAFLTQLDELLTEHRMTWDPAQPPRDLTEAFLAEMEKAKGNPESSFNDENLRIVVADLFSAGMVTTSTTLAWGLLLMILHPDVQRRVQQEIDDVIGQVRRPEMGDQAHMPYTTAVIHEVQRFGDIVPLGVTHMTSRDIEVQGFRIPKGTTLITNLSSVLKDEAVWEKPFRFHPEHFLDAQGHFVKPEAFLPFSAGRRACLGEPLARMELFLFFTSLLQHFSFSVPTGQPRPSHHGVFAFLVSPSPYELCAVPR
Sequence of CYP2D6 (P16435 whole entry partner): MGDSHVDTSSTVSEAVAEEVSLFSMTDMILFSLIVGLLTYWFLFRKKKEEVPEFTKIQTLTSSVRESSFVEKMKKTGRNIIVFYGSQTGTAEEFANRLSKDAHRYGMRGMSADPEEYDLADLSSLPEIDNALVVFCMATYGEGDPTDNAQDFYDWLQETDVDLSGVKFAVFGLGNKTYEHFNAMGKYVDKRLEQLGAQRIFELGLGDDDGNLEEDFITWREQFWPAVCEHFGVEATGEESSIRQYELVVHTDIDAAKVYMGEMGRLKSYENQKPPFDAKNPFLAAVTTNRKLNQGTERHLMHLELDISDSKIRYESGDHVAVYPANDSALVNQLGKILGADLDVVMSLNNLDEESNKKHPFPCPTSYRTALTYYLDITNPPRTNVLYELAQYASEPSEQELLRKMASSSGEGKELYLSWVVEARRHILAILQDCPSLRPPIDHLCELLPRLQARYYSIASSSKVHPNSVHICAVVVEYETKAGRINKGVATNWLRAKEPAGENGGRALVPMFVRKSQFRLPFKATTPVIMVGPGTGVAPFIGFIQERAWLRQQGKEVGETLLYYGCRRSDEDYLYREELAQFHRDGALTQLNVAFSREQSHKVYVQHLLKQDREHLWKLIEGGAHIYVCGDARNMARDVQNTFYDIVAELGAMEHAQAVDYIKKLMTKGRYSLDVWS

Turning to `CCCCCc1cc(O)c2c(c1)OC(C)(CC/C=C(\C)CO)C=C2` (centres unmarked) [8′-hydroxy-CBC], on CYP2C8, the “ratio of 8′-hydroxy-CBC to 6′,7′-epoxy-CBC formed” value is given as “around 5”. The “extent of 8′-hydroxy-CBC formation relative to 6′,7′-epoxy-CBC” value in the series with CYP2C9 is recorded as “approximately half”. On CYP2D6, the “preference for 8′-hydroxy-CBC formation compared to 6′,7′-epoxy-CBC” value is given as 3–4 times.
As for `CCCCCc1cc(O)c2c(c1)OC(C)(CCC=C(C)C)C=C2` (centres unmarked) [CBC, Cannabichromene], the “ΔAmax (spin state change due to heme perturbation)” value at CYP2J2 is 0.04 ± 0.00 and ~0.04. In addition, the Kd at CYP2J2 (read-out: Kd(app)) was 3.06 µM and ~3 µM.
